Patent US20190106747A1, “DRUGS, PHARMACOGENOMICS AND BIOMARKERS FOR ACIVE LONGEVITY” (Indiana University Research and Technology Corporation, priority 2016, published 2019)

How the values were obtained:
worms = conditions: direct prior experimental evidence; cited from earlier work
ABCC1 = ABCC1 (Homo sapiens, UniProt P33527); conditions: existing drug targeting top longevity biomarker; cited from earlier work
C. elegans [1] = assay: Survival after paraquat (oxidative stress) in Mianserin-treated C. elegans; format: in vivo; conditions: three independent alleles (e362, e1197, e1260) of ANK3/unc-44; 50 μM Mianserin from day 1 adult, paraquat five days later
Protocol: FIG. 4A are graphs depicting Mianserin-induced protection from oxidative stress requires ANK3/unc-44, the C. elegans homolog of mammalian ANK3. Wild-type (wt) N2 strain (dotted lines) or ANK3/unc-44 mutants (bold lines), at day 1 adult stage, were treated with water (black) or 50 μM Mianserin (red), followed by increasing concentrations of paraquat five days later. Survival of animals was determined 24 h after paraquat addition and plotted in [%] (Y-axis) as a function of paraquat concentration [mM] (X-axis). Parallel wt (N2) control experiments (dotted lines) are shown for each graph. […] All error bars show S.E.M for 3 to 4 independent experiments.

C. elegans [2] = assay: Lifespan of C. elegans treated with Mianserin; format: in vivo; conditions: for increase in lifespan: 50 μM Mianserin vs water
Protocol: FIG. 4B is a graph depicting lifespan curves of wt and unc-44(e362) animals treated with water or 50 μM Mianserin. […] (Y-axis) as a function of time [days] (X-axis). Dotted lines represent wt (N2) animals and bold lines represent unc-44(e362) mutants. Black: solvent control; red: Mianserin 50 μM. […] Asterisks indicate P values (**; P<0.01, ***P<0.001).
FIG. 4C is a graph depicting mean increase in lifespan [%] (Y-axis) as a function of Mianserin concentration [μM] (X-axis). Solid red line represents unc-44(e362) animals. Dotted red line represents the parallel control experiment of Mianserin-treated wt (N2) animals. Error bars show standard deviation for experimental replicates.

NAV1 = conditions: Table 4 universal biomarkers; longevity direction of change D; cited from earlier work
PLA2G6 = target: T1, PLA2G6 (Homo sapiens, UniProt O60733); conditions: existing drug targeting top longevity biomarker; cited from earlier work
T1 sequence (O60733 1-806): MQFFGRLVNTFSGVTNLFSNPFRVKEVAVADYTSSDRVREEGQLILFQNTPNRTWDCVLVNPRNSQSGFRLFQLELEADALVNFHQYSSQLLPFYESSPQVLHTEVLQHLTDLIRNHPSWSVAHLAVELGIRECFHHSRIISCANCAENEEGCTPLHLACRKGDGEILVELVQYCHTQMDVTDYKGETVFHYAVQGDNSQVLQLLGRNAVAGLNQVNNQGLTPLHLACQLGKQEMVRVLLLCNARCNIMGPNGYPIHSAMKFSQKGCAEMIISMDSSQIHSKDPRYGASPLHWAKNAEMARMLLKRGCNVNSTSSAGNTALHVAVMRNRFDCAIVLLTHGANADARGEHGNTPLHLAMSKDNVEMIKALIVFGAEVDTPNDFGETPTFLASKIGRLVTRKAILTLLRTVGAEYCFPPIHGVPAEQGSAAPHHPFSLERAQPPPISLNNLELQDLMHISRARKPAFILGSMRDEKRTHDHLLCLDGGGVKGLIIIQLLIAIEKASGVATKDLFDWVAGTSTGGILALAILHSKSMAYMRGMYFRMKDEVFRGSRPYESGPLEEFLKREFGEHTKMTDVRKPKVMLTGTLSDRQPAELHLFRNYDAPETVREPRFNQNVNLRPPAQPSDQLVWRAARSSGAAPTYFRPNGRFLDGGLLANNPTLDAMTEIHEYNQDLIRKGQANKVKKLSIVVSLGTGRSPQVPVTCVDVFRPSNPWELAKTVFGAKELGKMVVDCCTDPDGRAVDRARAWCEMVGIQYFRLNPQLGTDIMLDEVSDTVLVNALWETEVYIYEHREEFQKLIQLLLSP

POLH = conditions: Table 4 universal biomarkers; longevity direction of change I; cited from earlier work
ANK3 = conditions: amygdala of a mouse model of mood disorders and stress; previous work; cited from earlier work
MME = conditions: Table 5 biomarkers in males; longevity direction of change D; cited from earlier work

ABCC1, sequence (P33527 whole entry): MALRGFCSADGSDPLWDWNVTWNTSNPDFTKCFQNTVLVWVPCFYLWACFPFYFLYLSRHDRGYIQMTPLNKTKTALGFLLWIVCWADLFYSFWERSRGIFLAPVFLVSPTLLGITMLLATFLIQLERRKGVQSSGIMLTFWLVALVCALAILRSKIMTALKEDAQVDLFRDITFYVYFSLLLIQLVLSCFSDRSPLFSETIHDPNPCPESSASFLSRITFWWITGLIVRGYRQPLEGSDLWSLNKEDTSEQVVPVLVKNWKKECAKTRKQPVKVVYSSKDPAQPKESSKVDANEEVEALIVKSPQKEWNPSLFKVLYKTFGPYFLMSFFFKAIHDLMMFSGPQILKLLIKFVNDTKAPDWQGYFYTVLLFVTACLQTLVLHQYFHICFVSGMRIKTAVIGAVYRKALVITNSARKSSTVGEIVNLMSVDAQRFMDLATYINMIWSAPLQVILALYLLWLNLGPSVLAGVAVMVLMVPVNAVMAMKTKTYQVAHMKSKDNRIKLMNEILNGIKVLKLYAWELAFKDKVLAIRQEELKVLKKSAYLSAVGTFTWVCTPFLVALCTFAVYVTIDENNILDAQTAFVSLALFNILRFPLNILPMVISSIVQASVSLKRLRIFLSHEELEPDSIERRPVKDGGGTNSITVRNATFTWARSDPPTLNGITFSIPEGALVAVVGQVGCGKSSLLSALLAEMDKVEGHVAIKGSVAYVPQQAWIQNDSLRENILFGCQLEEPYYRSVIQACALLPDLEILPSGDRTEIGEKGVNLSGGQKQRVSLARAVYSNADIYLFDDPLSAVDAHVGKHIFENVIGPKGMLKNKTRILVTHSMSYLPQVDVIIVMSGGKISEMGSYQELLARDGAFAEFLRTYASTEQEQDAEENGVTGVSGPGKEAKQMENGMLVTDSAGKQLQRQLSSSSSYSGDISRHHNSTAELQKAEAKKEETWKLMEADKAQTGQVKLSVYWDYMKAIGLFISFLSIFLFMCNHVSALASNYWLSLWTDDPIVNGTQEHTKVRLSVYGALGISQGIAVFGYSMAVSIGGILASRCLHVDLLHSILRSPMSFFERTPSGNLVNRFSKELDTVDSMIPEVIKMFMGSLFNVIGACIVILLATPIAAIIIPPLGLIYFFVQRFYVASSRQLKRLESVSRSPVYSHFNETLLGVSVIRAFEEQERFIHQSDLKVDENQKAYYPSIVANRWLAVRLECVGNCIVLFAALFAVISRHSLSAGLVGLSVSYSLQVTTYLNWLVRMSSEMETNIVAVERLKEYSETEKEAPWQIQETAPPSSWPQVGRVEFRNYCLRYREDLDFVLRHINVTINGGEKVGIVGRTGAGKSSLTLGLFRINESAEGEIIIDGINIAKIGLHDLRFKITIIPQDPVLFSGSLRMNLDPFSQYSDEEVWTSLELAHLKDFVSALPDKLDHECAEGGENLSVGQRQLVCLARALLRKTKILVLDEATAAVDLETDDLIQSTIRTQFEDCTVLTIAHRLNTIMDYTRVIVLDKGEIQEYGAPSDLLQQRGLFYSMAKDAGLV

C[C@]12CC[C@@H]3c4ccc(O)cc4CC[C@H]3[C@@H]1CC[C@@H]2O [estradiol, (8R,9S,13S,14S,17S)-13-methyl-6,7,8,9,11,12,14,15,16,17-decahydrocyclopenta[a]phenanthrene-3,17-diol]
lifespan (worms): extending lifespan

O=C1C(CC[S+]([O-])c2ccccc2)C(=O)N(c2ccccc2)N1c1ccccc1 (centres unmarked) [sulfinpyrazone, 1,2-diphenyl-4-[2-(phenylsulfinyl)ethyl]pyrazolidine-3,5-dione]
effect on ABCC1 (ABCC1): inhibiting

CN1CCN2c3ccccc3Cc3ccccc3C2C1 (racemic) [Mianserin, (±)-2-methyl-1,2,3,4,10,14b-hexahydrodibenzo[c,f]pyrazino[1,2-a]azepine]
resistance to oxidative stress (survival 24 h after paraquat) (C. elegans [1]): failed to increase resistance to oxidative stress
lifespan extension as a function of Mianserin concentration (C. elegans [2]; ANK3/unc-44(e362) mutants, any Mianserin concentration): No lifespan extension
increase in lifespan (C. elegans [2]; unc-44(e362) mutant animals): −9%
increase in lifespan (C. elegans [2]; wild-type (N2) animals): +40%

COc1ccc(C(CN(C)C)C2(O)CCCCC2)cc1 (centres unmarked) [Venlafaxine]
NAV1 modulated by drug in the same direction as longevity (NAV1): Venlafaxine

CCN(CC)CCCC(C)Nc1c2ccc(Cl)cc2nc2ccc(OC)cc12 (racemic) [quinacrine, (RS)—N′-(6-Chloro-2-methoxy-acridin-9-yl)-N,N-diethylpentane-1,4-diamine]
effect on PLA2G6 (PLA2G6): inhibiting

NC(=O)N1c2ccccc2C=Cc2ccccc21 [Carbamazepine]
POLH modulated by drug in the same direction as longevity (POLH): Carbamazepine

CC/C=C\C/C=C\C/C=C\C/C=C\C/C=C\C/C=C\CCC(=O)O [DHA]
ANK3 expression (ANK3): decreased

sacubitril/valsartan
MME modulated by drug in the same direction as longevity (MME): sacubitril/
